Assay results reported in patent US5302589A, “Heterocyclic inhibitors of 5-α-testosterone reductase” (Glaxo, Inc., priority 1992, dated 1994).

biological target: T1, 5-α-reductase (Homo sapiens, UniProt P31213); experiment: Steroid 5-α-reductase in vitro assay (prostatic microsomes, conversion of [3H]-testosterone to DHT); format: biochemical; details: microsomes from human (BPH) prostate tissue; 100 nM [1,2,6,7-^3 H]-testosterone, 1 mM NADPH, 60 minutes at 37° C.; HPLC with radiochemical detection; read-out: 5-α-REDUCTASE in vitro INHIBITORY ACTIVITY IC50 Human
T1 construct: microsomes derived from human prostate tissue; from tissue; host or cells: human prostate tissue (BPH patients), microsomes
T1 sequence (P31213 1-254): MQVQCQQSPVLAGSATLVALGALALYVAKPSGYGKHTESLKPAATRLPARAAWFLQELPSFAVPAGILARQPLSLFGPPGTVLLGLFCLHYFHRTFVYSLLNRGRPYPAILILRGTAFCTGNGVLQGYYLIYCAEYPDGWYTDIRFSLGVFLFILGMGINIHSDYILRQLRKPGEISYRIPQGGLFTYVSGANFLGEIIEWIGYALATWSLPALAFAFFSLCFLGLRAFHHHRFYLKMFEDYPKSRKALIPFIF
Protocol: Enzyme activity may be determined using microsomes derived from prostate tissue of benign prostatic hypertrophy (BPH) patients or from rat prostate tissue. Prostatic microsomes were prepared by homogenization of the tissue, followed by differential centrifugation of the homogenate. Microsome extracts were incubated with 100 nM [1,2,6,7-^3 H]-testosterone, 1 mM NADPH and varying amounts of the a compounds of Formula (I), i.e., a test compound, for 60 minutes at 37° C. Corresponding incubations were carried out with no test compound as a control study. The percentage of conversion of testosterone to DHT in the presence of a test compounds compared to the corresponding conversion in the control study was estimated using high pressure liquid chromatography (HPLC) with radiochemical detection. The results of this assay as IC50 values for microsomes derived from human prostate tissue are show in Table 1.

| IC50 | SMILES |
| --- | --- |
| 0.1 to 1 µM | CCN(CC)C(=O)[C@H]1CC[C@H]2[C@@H]3Cn4nnc5c4[C@](C)(CCC5=O)[C@H]3CC[C@]12C [Compound 1, 17β-N,N-Diethylcarbamoyl-6-azaandrost-4,6-diazo-4-en-3-one] |
| 0.01 to 0.1 µM | CCN(CC)C(=O)[C@H]1CC[C@H]2[C@@H]3Cn4ccc5c4[C@](C)(CCC5=O)[C@H]3CC[C@]12C [Compound 2, 17β-N,N-Diethylcarbamoyl-6-azaandrost-4,6-etheno-4-en-3-one] |
| 0.01 to 0.1 µM | CC(C)(C)NC(=O)[C@H]1CC[C@H]2[C@@H]3Cn4ccc5c4[C@](C)(CCC5=O)[C@H]3CC[C@]12C [Compound 3, 17β-N-t-Butylcarbamoyl-6-azaandrost-4,6-etheno-4-en-3-one] |
| 0.01 to 0.1 µM | CC(C)(C)NC(=O)[C@H]1CC[C@H]2[C@@H]3CN4CCCCC5=C4[C@](C)(CCC5=O)[C@H]3CC[C@]12C [Compound 4, 17β-N-t-Butylcarbamoyl-6-azaandrost-4,6-butano-4-en-3-one] |
